Experimental data published in US20120115869A1, “TETRAZOLE DERIVATIVES” (MERCK SERONO S.A., priority 2009, published 2012).

Biological target: T1, CRTH2 (DP2) (Homo sapiens, UniProt Q9Y5Y4)
T1 construct: host or cells: CHO cells
T1 sequence (Q9Y5Y4 1-395): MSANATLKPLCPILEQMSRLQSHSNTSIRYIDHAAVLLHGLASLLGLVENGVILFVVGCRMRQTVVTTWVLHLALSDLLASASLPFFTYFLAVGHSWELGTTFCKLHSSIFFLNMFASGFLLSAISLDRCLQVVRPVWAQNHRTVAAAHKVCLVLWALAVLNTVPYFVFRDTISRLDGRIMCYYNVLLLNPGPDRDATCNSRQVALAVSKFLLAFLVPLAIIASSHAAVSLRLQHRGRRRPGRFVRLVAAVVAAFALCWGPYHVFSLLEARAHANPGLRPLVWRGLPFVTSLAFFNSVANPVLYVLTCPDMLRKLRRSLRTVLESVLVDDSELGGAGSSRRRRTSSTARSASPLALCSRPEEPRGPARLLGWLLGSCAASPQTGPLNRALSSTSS
Assay: Radioligand binding Scintillation Proximity Assay ([3H]PGD2, hCRTH2-CHO cell membranes)
Settings: 1.5 nM [3H]PGD2, hCRTH2-CHO cell membranes, SPA
Method: Adherent CHO cells expressing hCRTH2 (Euroscreen, Belgium) were cultured in 225 cm^2 cell culture flasks (Corning, USA) in 30 ml of medium. After two rinses of phosphate buffered saline (PBS), cells were harvested in 10 ml of PBS containing 1 mM EDTA, centrifuged at 500×g for 5 min at 4° C. and frozen at −80° C. The pellet was re-suspended in 50 mM Tris-HCl, pH 7.4, 2 mM EDTA, 250 mM Sucrose, containing protease inhibitor cocktail tablets, (Complete EDTA-free, Roche, Germany) and incubated 30 min at 4° C. Cells were disrupted by nitrogen cavitation (Parr Instruments, USA) at 4° C. (800 p.s.i. for 30 min), and centrifuged at 500×g for 10 min at 4° C. Pellet containing nuclei and cellular debris was discarded and supernatant was centrifuged 60 min at 4° C. at 45000×g. Membrane pellet was re-suspended in storage buffer (10 mM HEPES/KOH pH 7.4, 1 mM EDTA, 250 mM sucrose, protease inhibitor cocktail tablets) using Dounce homogenization and frozen in liquid nitrogen, and stored at 80° C.
Non-specific binding was determined in the presence of 10 μM PGD2 (Cayman, USA). Competing Compounds of Formula (I) were diluted in dimethylsulphoxide so that the total volume of dimethylsulfoxide was kept constant at 1% dimethylsulphoxide (Me2SO). Serial dilutions of […] were prepared and 10 μl each of the compounds of Formula (I) stock solutions were added to the binding assay reagents and incubated for 90 min with agitation at room temperature.

Structure (SMILES)	IC50 [nM]
CCC(=O)N(Cc1cccc(OC(F)(F)F)c1)c1cccc(-c2nnn[nH]2)c1 [Example 42, N-[3-(1H-tetrazol-5-yl)phenyl]-N-[3-(trifluoromethoxy)benzyl]propanamide]	245
CCC(=O)N(Cc1ccc(-c2cn(C)nc2C)cc1)c1cc(F)cc(-c2nnn[nH]2)c1 [Example 88, N-[4-(1,3-dimethyl-1H-pyrazol-4-yl)benzyl]-N-[3-fluoro-5-(1H-tetrazol-5-yl)phenyl]propanamide]	21
CCC(=O)N(Cc1ccc(-c2ccccc2)cc1)c1cccc(-c2nnn[nH]2)c1 [Example 69, N-(biphenyl-4-ylmethyl)-N-[3-(1H-tetrazol-5-yl)phenyl]propanamide]	506
CCC(=O)N(Cc1ccc(S(=O)(=O)C(F)(F)F)cc1)c1cc(F)cc(-c2nnn[nH]2)c1 [Example 95, N-[3-fluoro-5-(1H-tetrazol-5-yl)phenyl]-N-{4-[(trifluoromethyl)sulfonyl]benzyl}propanamide]	5.6
CCNS(=O)(=O)c1cccc(-c2ccc(CN(C(=O)CC)c3cc(F)cc(-c4nnn[nH]4)c3)cc2)c1 [Example 86, N-({3′-[(ethylamino)sulfonyl]biphenyl-4-yl}methyl)-N-[3-fluoro-5-(1H-tetrazol-5-yl)phenyl]propanamide]	170
CCC(=O)N(Cc1ccc(-c2cccc(S(=O)(=O)N(C)C)c2)cc1)c1cc(F)cc(-c2nnn[nH]2)c1 [Example 93, N-({3′-[(dimethylamino)sulfonyl]biphenyl-4-yl}methyl)-N-[3-fluoro-5-(1H-tetrazol-5-yl)phenyl]propanamide]	125
CCC(=O)N(Cc1ccc2c(c1)OCO2)c1cccc(-c2nnn[nH]2)c1 [Example 34, N-(1,3-benzodioxol-5-ylmethyl)-N-[3-(1H-tetrazol-5-yl)phenyl]propanamide]	147
CCCCC(=O)N(Cc1cccc(O)c1)c1cccc(-c2nnn[nH]2)c1 [Example 79, N-(3-hydroxybenzyl)-N-[3-(1H-tetrazol-5-yl)phenyl]pentanamide]	140
CCC(=O)N(Cc1ccc(C(F)(F)F)cc1)c1cccc(-c2nnn[nH]2)c1 [Example 27, N-[3-(1H-tetrazol-5-yl)phenyl]-N-[4-(trifluoromethyl)benzyl]propanamide]	129
CCC(=O)N(Cc1ccc(-c2ccccc2Cl)cc1)c1cc(F)cc(-c2nnn[nH]2)c1 [Example 98, N-[(2′-chlorobiphenyl-4-yl)methyl]-N-[3-fluoro-5-(1H-tetrazol-5-yl)phenyl]propanamide]	31
CCCCC(=O)N(Cc1ccc2ccccc2c1)c1cc(-c2nnn[nH]2)ccc1F [Example 6, N-[2-fluoro-5-(1H-tetrazol-5-yl)phenyl]-N-(2-naphthylmethyl)pentanamide]	23
CCC(=O)N(Cc1ccc2ncccc2c1)c1cccc(-c2nnn[nH]2)c1 [Example 72, N-(quinolin-6-ylmethyl)-N-[3-(1H-tetrazol-5-yl)phenyl]propanamide]	1110
CCCCC(=O)N(Cc1cc2ccccc2o1)c1cc(-c2nnn[nH]2)ccc1F [Example 12, N-(1-benzofuran-2-ylmethyl)-N-[2-fluoro-5-(1H-tetrazol-5-yl)phenyl]pentanamide]	8.6
CCCCC(=O)N(Cc1ccc2ccccc2c1)c1cccc(-c2nnn[nH]2)c1 [Example 3, N-(2-naphthylmethyl)-N-[3-(1H-tetrazol-5-yl)phenyl]pentanamide]	49
CCCC(=O)N(Cc1ccc2c(c1)OCCO2)c1cccc(-c2nnn[nH]2)c1 [Example 19, N-(2,3-dihydro-1,4-benzodioxin-6-ylmethyl)-N-[3-(1H-tetrazol-5-yl)phenyl]butanamide]	15
CCC(=O)N(Cc1ccc(-c2ccccc2C)cc1)c1cc(F)cc(-c2nnn[nH]2)c1 [Example 102, N-[3-fluoro-5-(1H-tetrazol-5-yl)phenyl]-N-[(2′-methylbiphenyl-4-yl)methyl]propanamide]	8.9
CCC(=O)N(Cc1c(-c2ccccc2)noc1C)c1cccc(-c2nnn[nH]2)c1 [Example 23, N-[(5-methyl-3-phenylisoxazol-4-yl)methyl]-N-[3-(1H-tetrazol-5-yl)phenyl]propanamide]	2960
CCCCC(=O)N(Cc1cccc(OC(F)(F)F)c1)c1cc(F)cc(-c2nnn[nH]2)c1 [Example 29, N-[3-fluoro-5-(1H-tetrazol-5-yl)phenyl]-N-[3-(trifluoromethoxy)benzyl]pentanamide]	5.2
CCC(=O)N(Cc1cccc([S+]([O-])C(F)(F)F)c1)c1cc(F)cc(-c2nnn[nH]2)c1 (stereo not shown) [Example 112, N-[3-fluoro-5-(1H-tetrazol-5-yl)phenyl]-N-{3-[(trifluoromethyl)sulfinyl]benzyl}propanamide]	19
CCC(=O)N(Cc1ccc(Cl)c(OC(F)(F)F)c1)c1cc(F)cc(-c2nnn[nH]2)c1 [Example 76, N-[4-chloro-3-(trifluoromethoxy)benzyl]-N-[3-fluoro-5-(1H-tetrazol-5-yl)phenyl]propanamide]	18

Further molecules by falling IC50, results first:

IC50 [nM]	Structure (SMILES)
663	CCC(=O)N(Cc1nc2ccccc2s1)c1cccc(-c2nnn[nH]2)c1 [Example 43, N-(1,3-benzothiazol-2-ylmethyl)-N-[3-(1H-tetrazol-5-yl)phenyl]propanamide]
235	CCC(=O)N(Cc1cccc(-c2sc(C)nc2C)c1)c1cccc(-c2nnn[nH]2)c1 [Example 63, N-[3-(2,4-dimethyl-1,3-thiazol-5-yl)benzyl]-N-[3-(1H-tetrazol-5-yl)phenyl]propanamide]
140	CCC(=O)N(Cc1ccc(-c2cccnc2)cc1)c1cc(F)cc(-c2nnn[nH]2)c1 [Example 90, N-[3-fluoro-5-(1H-tetrazol-5-yl)phenyl]-N-(4-pyridin-3-ylbenzyl)propanamide]
113	CCC(=O)N(Cc1ccc(-c2cnoc2)cc1)c1cc(F)cc(-c2nnn[nH]2)c1 [Example 111, N-[3-fluoro-5-(1H-tetrazol-5-yl)phenyl]-N-(4-isoxazol-4-ylbenzyl)propanamide]
75	CCC(=O)N(Cc1ccc(S(C)(=O)=O)cc1)c1cccc(-c2nnn[nH]2)c1 [Example 65, N-[4-(methylsulfonyl)benzyl]-N-[3-(1H-tetrazol-5-yl)phenyl]propanamide]
51	CCC(=O)N(Cc1ccc2c(c1)OCCO2)c1cccc(-c2nnn[nH]2)c1 [Example 20, N-(2,3-dihydro-1,4-benzodioxin-6-ylmethyl)-N-[3-(1H-tetrazol-5-yl)phenyl]propanamide]
32	CS(=O)(=O)c1ccc(CN(C(=O)C2CCOCC2)c2cc(F)cc(-c3nnn[nH]3)c2)cc1 [Example 118, N-[3-fluoro-5-(1H-tetrazol-5-yl)phenyl]-N-[4-(methylsulfonyl)benzyl]tetrahydro-2H-pyran-4-carboxamide]
30	CCC(=O)N(Cc1cccc(-c2ccn[nH]2)c1)c1cc(F)cc(-c2nnn[nH]2)c1 [Example 115, N-[3-fluoro-5-(1H-tetrazol-5-yl)phenyl]-N-[3-(1H-pyrazol-5-yl)benzyl]propanamide]
20	CS(=O)(=O)c1ccc(CN(C(=O)c2ccncc2)c2cc(F)cc(-c3nnn[nH]3)c2)cc1 [Example 106, N-[3-fluoro-5-(1H-tetrazol-5-yl)phenyl]-N-[4-(methylsulfonyl)benzyl]isonicotinamide]
13	CCC(=O)N(Cc1ccc2c(c1)OC(F)(F)O2)c1cc(Cl)cc(-c2nnn[nH]2)c1 [Example 103, N-[3-chloro-5-(1H-tetrazol-5-yl)phenyl]-N-[(2,2-difluoro-1,3-benzodioxol-5-yl)methyl]propanamide]
9.3	CCC(=O)N(Cc1ccc(OC(F)(F)F)cc1)c1cc(F)cc(-c2nnn[nH]2)c1 [Example 36, N-[3-fluoro-5-(1H-tetrazol-5-yl)phenyl]-N-[4-(trifluoromethoxy)benzyl]propanamide]
6.3	CCCC(=O)N(Cc1ccc2c(c1)OCCO2)c1cc(-c2nnn[nH]2)ccc1F [Example 8, N-(2,3-dihydro-1,4-benzodioxin-6-ylmethyl)-N-[2-fluoro-5-(1H-tetrazol-5-yl)phenyl]butanamide]
5.2	CCC(=O)N(Cc1ccc(-c2sc(C)nc2C)cc1)c1cc(F)cc(-c2nnn[nH]2)c1 [Example 119, N-[4-(2,4-dimethyl-1,3-thiazol-5-yl)benzyl]-N-[3-fluoro-5-(1H-tetrazol-5-yl)phenyl]propanamide]
4.2	CCCCC(=O)N(Cc1ccc2c(c1)OCCO2)c1cc(-c2nnn[nH]2)ccc1F [Example 15, N-(2,3-dihydro-1,4-benzodioxin-6-ylmethyl)-N-[2-fluoro-5-(1H-tetrazol-5-yl)phenyl]pentanamide]
